Assay results as given in PubChem BioAssay (NCI).
Where “and” joins values, the source holds several entries; their conditions need not be identical. Equal values may be shown once.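 How tested: cells in 96-well plates exposed to compound for 48 hours at five concentrations. GI50 is the concentration that inhibits growth by half. At the TGI there is no net growth.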

Key:
Assay in all cases: growth of human tumour cells (NCI), 48 h
HOP-62 NSCLC = tested on: HOP-62 NSCLC
DLD-1 colon = tested on: DLD-1 colon
LOX IMVI melanoma = tested on: LOX IMVI melanoma
EKVX NSCLC = tested on: EKVX NSCLC
NCI-H522 lung = tested on: NCI-H522 lung
SK-MEL-5 melanoma = tested on: SK-MEL-5 melanoma
HL-60(TB) leukemia = tested on: HL-60(TB) leukemia
OVCAR-8 ovarian = tested on: OVCAR-8 ovarian
CCRF-CEM leukemia = tested on: CCRF-CEM leukemia
NCI-H23 lung = tested on: NCI-H23 lung
MALME-3M melanoma = tested on: MALME-3M melanoma
RPMI-8226 leukemia = tested on: RPMI-8226 leukemia
KM12 colon = tested on: KM12 colon
DMS 114 small cell lung = tested on: DMS 114 small cell lung
HCC-2998 colon = tested on: HCC-2998 colon
NCI-H460 lung = tested on: NCI-H460 lung
A549 NSCLC = tested on: A549 NSCLC
XF 498 CNS = tested on: XF 498 CNS
CAKI-1 renal = tested on: CAKI-1 renal
SK-OV-3 ovarian = tested on: SK-OV-3 ovarian
LXFL 529 NSCLC = tested on: LXFL 529 NSCLC
UACC-257 melanoma = tested on: UACC-257 melanoma
SR leukemia = tested on: SR leukemia
HOP-92 NSCLC = tested on: HOP-92 NSCLC
K-562 leukemia = tested on: K-562 leukemia
HCT-15 colon = tested on: HCT-15 colon
M19-MEL melanoma = tested on: M19-MEL melanoma
KM20L2 colon = tested on: KM20L2 colon
SN12C renal = tested on: SN12C renal
OVCAR-5 ovarian = tested on: OVCAR-5 ovarian
ACHN renal = tested on: ACHN renal
IGROV1 ovarian = tested on: IGROV1 ovarian
UO-31 renal = tested on: UO-31 renal
HCT-116 colon = tested on: HCT-116 colon
UACC-62 melanoma = tested on: UACC-62 melanoma
A498 renal = tested on: A498 renal
786-0 renal = tested on: 786-0 renal
MOLT-4 leukemia = tested on: MOLT-4 leukemia
OVCAR-3 ovarian = tested on: OVCAR-3 ovarian
SK-MEL-2 melanoma = tested on: SK-MEL-2 melanoma
OVCAR-4 ovarian = tested on: OVCAR-4 ovarian
U251 CNS = tested on: U251 CNS
SW-620 colon = tested on: SW-620 colon
SF-539 CNS = tested on: SF-539 CNS
SF-268 CNS = tested on: SF-268 CNS
HT29 colon = tested on: HT29 colon
RXF 393 renal = tested on: RXF 393 renal
SNB-75 CNS = tested on: SNB-75 CNS
SNB-19 CNS = tested on: SNB-19 CNS
COLO 205 colon = tested on: COLO 205 colon
DMS 273 small cell lung = tested on: DMS 273 small cell lung
TK-10 renal = tested on: TK-10 renal
M14 melanoma = tested on: M14 melanoma
HOP-18 NSCLC = tested on: HOP-18 NSCLC
NCI-H226 lung = tested on: NCI-H226 lung
SK-MEL-28 melanoma = tested on: SK-MEL-28 melanoma
SF-295 CNS = tested on: SF-295 CNS

CC(=O)OCC1OC(OC2CC3C(C)(C)C(O)CC[C@]3(C)C3CCC45CC4(CC[C@H]5C(C)CC(O)C4OC4(C)C)[C@]23C)C(O)C(O)C1O (stereo partly specified) was tested, and the GI50 (HOP-62 NSCLC) was 14.2 µM, the TGI (HOP-62 NSCLC) was 19.1 µM and 29.5 µM and the GI50 (DLD-1 colon) was 14 µM. For the same compound, the TGI (DLD-1 colon) was 14.9 µM and 28.8 µM, the GI50 (LOX IMVI melanoma) was 1.52 µM and the TGI (LOX IMVI melanoma) was 12.1 µM and 3.17 µM. The GI50 (EKVX NSCLC) was 13.7 µM, the TGI (EKVX NSCLC) was 15.9 µM and 29.2 µM and the GI50 (NCI-H522 lung) was 5.75 µM. For the same compound, the TGI (NCI-H522 lung) was 11.8 µM and 19 µM, the GI50 (SK-MEL-5 melanoma) was 5.65 µM and the TGI (SK-MEL-5 melanoma) was 10.2 µM and 17.6 µM. The GI50 (HL-60(TB) leukemia) was 1.73 µM, the TGI (HL-60(TB) leukemia) was 3.67 µM and 4.18 µM and the GI50 (OVCAR-8 ovarian) was 8.97 µM. The TGI (OVCAR-8 ovarian) was 14.4 µM and 23.8 µM, the GI50 (CCRF-CEM leukemia) was 2.56 µM and the TGI (CCRF-CEM leukemia) was 6.74 µM and 6.72 µM. The GI50 (NCI-H23 lung) was 12.2 µM, the TGI (NCI-H23 lung) was 16.5 µM and 27.5 µM and the GI50 (MALME-3M melanoma) was 4.52 µM. For the same compound, the TGI (MALME-3M melanoma) was 16.5 µM and 20.8 µM, the GI50 (RPMI-8226 leukemia) was 2.49 µM and the TGI (RPMI-8226 leukemia) was 2.41 µM and 7.16 µM. For the same compound, the GI50 (KM12 colon) was 4.66 µM, the TGI (KM12 colon) was 15.6 µM and 17.3 µM and the GI50 (DMS 114 small cell lung) was 6.7 µM. For the same compound, the TGI (DMS 114 small cell lung) was 11.3 µM and 21.3 µM, the GI50 (HCC-2998 colon) was 8.26 µM and the TGI (HCC-2998 colon) was 13.8 µM and 21.3 µM. For the same compound, the GI50 (NCI-H460 lung) was 5.08 µM, the TGI (NCI-H460 lung) was 16.8 µM and 20.4 µM and the GI50 (A549 NSCLC) was 12.3 µM. The TGI (A549 NSCLC) was 18.5 µM and 27.1 µM, the TGI (XF 498 CNS) was 14.3 µM and the GI50 (CAKI-1 renal) was 19.6 µM. The TGI (CAKI-1 renal) was 17.1 µM and 34.4 µM, the GI50 (SK-OV-3 ovarian) was 15.7 µM and the TGI (SK-OV-3 ovarian) was 15 µM and 29.2 µM. The GI50 (LXFL 529 NSCLC) was 2.92 µM, the TGI (LXFL 529 NSCLC) was 12.2 µM and 12.6 µM and the TGI (UACC-257 melanoma) was 16.1 µM and 22.6 µM. The GI50 (SR leukemia) was 1.93 µM, the TGI (SR leukemia) was 3.53 µM and 4.13 µM and the TGI (HOP-92 NSCLC) was 14.6 µM. The TGI (K-562 leukemia) was 4.12 µM and 16.2 µM, the GI50 (HCT-15 colon) was 14.2 µM and the TGI (HCT-15 colon) was 15.3 µM and 27.6 µM. For the same compound, the GI50 (M19-MEL melanoma) was 3.7 µM, the TGI (M19-MEL melanoma) was 10.6 µM and 12.6 µM and the GI50 (KM20L2 colon) was 11.9 µM. The TGI (KM20L2 colon) was 15.6 µM and 24.2 µM, the TGI (SN12C renal) was 15.2 µM and 21.6 µM and the GI50 (OVCAR-5 ovarian) was 15.8 µM. For the same compound, the TGI (OVCAR-5 ovarian) was 16.1 µM and 29.2 µM, the GI50 (ACHN renal) was 19.2 µM and the TGI (ACHN renal) was 15.5 µM and 33.6 µM. The GI50 (IGROV1 ovarian) was 5.91 µM, the TGI (IGROV1 ovarian) was 7.61 µM and 15.6 µM and the GI50 (UO-31 renal) was 17.7 µM. For the same compound, the TGI (UO-31 renal) was 15.4 µM and 31.6 µM, the GI50 (HCT-116 colon) was 3.57 µM and the TGI (HCT-116 colon) was 16.3 µM and 21.8 µM. The GI50 (UACC-62 melanoma) was 4.99 µM, the TGI (UACC-62 melanoma) was 14.2 µM and 17.3 µM and the TGI (A498 renal) was 51.8 µM. For the same compound, the GI50 (786-0 renal) was 5.67 µM, the TGI (786-0 renal) was 14.9 µM and 18.9 µM and the GI50 (MOLT-4 leukemia) was 3.01 µM. The TGI (MOLT-4 leukemia) was 2.34 µM and 7.26 µM, the GI50 (OVCAR-3 ovarian) was 4.26 µM and the TGI (OVCAR-3 ovarian) was 12.5 µM and 17.6 µM. The GI50 (SK-MEL-2 melanoma) was 2.46 µM, the TGI (SK-MEL-2 melanoma) was 12.1 µM and 8.67 µM and the GI50 (OVCAR-4 ovarian) was 13.9 µM. The TGI (OVCAR-4 ovarian) was 15.8 µM and 30.7 µM, the GI50 (U251 CNS) was 5.17 µM and the TGI (U251 CNS) was 10.3 µM and 16.5 µM. For the same compound, the GI50 (SW-620 colon) was 4.74 µM, the TGI (SW-620 colon) was 16.5 µM and 16.9 µM and the GI50 (SF-539 CNS) was 6.32 µM. The TGI (SF-539 CNS) was 15.3 µM and 18.7 µM, the GI50 (SF-268 CNS) was 11 µM and the TGI (SF-268 CNS) was 13.4 µM and 28.4 µM. For the same compound, the GI50 (HT29 colon) was 12.9 µM, the TGI (HT29 colon) was 15.7 µM and 27.7 µM and the GI50 (RXF 393 renal) was 9.7 µM. The TGI (RXF 393 renal) was 10.7 µM and 38.5 µM, the GI50 (SNB-75 CNS) was 13.7 µM and the TGI (SNB-75 CNS) was 15 µM and 26.6 µM. For the same compound, the GI50 (SNB-19 CNS) was 5.14 µM, the TGI (SNB-19 CNS) was 15 µM and 16.9 µM and the GI50 (COLO 205 colon) was 3.4 µM. For the same compound, the TGI (COLO 205 colon) was 13.8 µM and 11.9 µM, the GI50 (DMS 273 small cell lung) was 4.44 µM and the TGI (DMS 273 small cell lung) was 15.1 µM and 15.7 µM. The GI50 (TK-10 renal) was 15.2 µM, the TGI (TK-10 renal) was 15.7 µM and 29.5 µM and the GI50 (M14 melanoma) was 5.37 µM. The TGI (M14 melanoma) was 16 µM and 17.2 µM, the GI50 (HOP-18 NSCLC) was 5.27 µM and the TGI (HOP-18 NSCLC) was 13.6 µM and 17.5 µM. For the same compound, the TGI (NCI-H226 lung) was 16.1 µM, the GI50 (SK-MEL-28 melanoma) was 8.37 µM and the TGI (SK-MEL-28 melanoma) was 14.3 µM and 21.3 µM. For the same compound, the TGI (SF-295 CNS) was 15.1 µM and 19.5 µM.
